How the values were obtained:
Type in all cases: cell-based, Dickeya dadantii 3937 (Ech3937)
hrpA promoter = hrpA promoter activity, GFP reporter plasmid phrpA, flow cytometry (FACS); details: for GFP intensity (Mean Fluorescence Intensity) of Ech-Rif (phrpA) / GFP intensity (Mean Fluorescence Intensity) of Ech137 (phrpA): MM + 0.1 mM OCA; for GFP intensity (Mean Fluorescence Intensity) of Ech137 (phrpA): gacA mutant Ech137; for GFP intensity (Mean Fluorescence Intensity) of WPP96 (phrpA): hrpL mutant WPP96; for GFP intensity (Mean Fluorescence Intensity) of WPP90 (phrpA): hrpS mutant WPP90; for GFP intensity (Mean Fluorescence Intensity) of WPP67 (phrpA): hrpX mutant WPP67; for GFP intensity (Mean Fluorescence Intensity) of WPP92 (phrpA): hrpY mutant WPP92
Protocol: (§1) FACS analysis of promoter activity of dspE, hrpA, hrpL, hrpN, and hrpS was carried out as described (Peng et al., 2006). Briefly, the wild-type Ech3937 and the mutant strains carrying the promoter reporter plasmid were grown on LB broth at 28° C. overnight and transferred to appropriate media. For FACS analysis, samples were collected by centrifugation, washed with 1× phosphate buffer saline (PBS) at 13,000 rpm for 1 min, and re-suspended in 1×PBS to ca 10^6 CFU/ml prior to being run in a FACS Calibur flow cytometer (BD Biosciences, CA). Three replicates were performed for each treatment.
To identify potential compounds that repress activation of T3SS, analogs and isomers of TCA and intermediates of salicylic acid and phenypropanoid biosynthesis pathways in plants were further screened for their effect on Ech3937 hrpA expression by flow cytometry (Table 9). A green fluorescent protein (GFP) reporter plasmid phrpA (pProbe-AT derivative with PCR fragment containing hrpA promoter region) was constructed, resulting in a transcriptional fusion of hrpA promoter with GFP gene. Bacterial cells containing phrpA plasmid were grown in MM supplemented with 0.1 mM of each compound. GFP intensity, which is a measurement of hrpA promoter activity, was measured by flow cytometry.

hrpL promoter = hrpL promoter activity, GFP reporter plasmid phrpL, flow cytometry (FACS)
Protocol: as §1
(§2) Since OCA and TCA induced the expression of hrpN, the effect of these two phenolic compounds on the expression of hrpA, hrpL, and hrpS was investigated further. […] GFP intensity was determined on gated populations of bacterial cells by flow cytometry and analyzed with the Cell Quest software (BD Biosciences, San Jose, Calif.). The lines labeled “1” stand for the GFP expression control base level of the Ech3937 containing pPROBE-AT vector; lines labeled “2” stand for the promoter activity of hrpS, hrpL, hrpA and hrpN in Ech3937 in MM; lines labeled “3” stand for the promoter activity of Ech3937 in MM supplemented with 0.1 mM OCA; lines labeled “4” stand for the promoter activity of hrpL mutant WPP96 in MM; lines labeled “5” stand for the promoter activity of hrpL mutant WPP96 in MM supplemented with 0.1 mM OCA. Values are representative of at least two experiments. […] Compared with MM alone, the average GFP fluorescence intensity of bacterial cells of Ech3937 (phrpA) was doubled when 0.1 mM of OCA and TCA were added to the medium (Table 4; FIG. 3). […] The mrp, whose protein product has an ATPase conserved domain (2e-06), was used as a reference gene in this study.

mrp promoter = assay: mrp (reference gene) promoter activity, GFP reporter pmrp, flow cytometry (FACS); details: for GFP intensity (Mean Fluorescence Intensity) of Ech3937 (pmrp): reference gene
Protocol: as §1, §2

hrpA mRNA = assay: qRT-PCR relative mRNA level of hrpA
Protocol: Bacterial strains were grown in MM. Total RNA from the bacterial cells was isolated by using the TRI reagent method (Sigma, Mo.) and treated with Turbo DNA-free DNase kits (Ambion, TX) as described (Peng et al., 2006). An iScript cDNA Synthesis Kit (Bio-Rad, CA) was used to synthesize cDNA from 0.5 μg of treated total RNA. The Real Master Mix (Eppendorf, Westbury, N.Y.) was used for qRT-PCR reaction to quantify the cDNA level of target genes in different samples. The rplU was used as the endogenous control for data analysis. qRT-PCR data were analyzed using Relative Expression Software Tool as described (Pfaffl, M. W., Horgan, G. W., and Dempfle, L. (2002) Relative expression software tool (REST) for group-wise comparison and statistical analysis of relative expression results in real-time PCR. Nucleic Acids Res 30:e36.).

Ech3937 = assay: Growth of Ech3937 in MM supplemented with compound
Excerpt: Phenolic compounds constitute an important class of organic substances produced by plants. The phenolic compound SA is a signaling molecule that plays a role in host defenses. OCA and TCA are the biosynthetic precursors of SA and are also reported to induce the expression of defense-related genes in plants. OCA, TCA, and SA were examined to elucidate their effects on the expression of T3SS genes. The expression of the T3SS gene hrpN was examined in MM and MM supplemented with OCA, TCA, and SA, at concentrations of 0.05, 0.1, and 0.2 mM, respectively. FIGS. 2A and 2B show the promoter activities of hrpN in Dickeya dadantii 3937 (Ech3937) grown in MM and MM supplemented with 0.05, 0.1, and 0.2 mM OCA, TCA, and SA at 12 h (FIG. 2A) and 24 h (FIG. 2B) post-inoculation. GFP intensity was determined on gated populations of bacterial cells by flow cytometry and analyzed with the Cell Quest software (BD Biosciences, San Jose, Calif.). The growth of Ech3937 in MM supplemented with different concentrations of OCA, TCA and SA was recorded. Compared with MM alone, the average GFP fluorescence intensity of bacterial cells of Ech3937 (phrpN) was increased approximately 4-fold when 0.05 mM of OCA and TCA were added to the medium (FIGS. 2A, 2B).
The expression of the T3SS gene hrpA was further examined in MM and MM supplemented with PCA at concentrations of 0.001, 0.005, 0.01, 0.05 and 0.1 mM respectively. FIGS. 16A and 16B show the promoter activities of hrpA in Dickeya dadantii 3937 (Ech3937) grown in minimum medium (MM) and MM supplemented with different amount of p-coumaric acid (PCA) at 12 h (FIG. 16A) and 24 h (FIG. 16B) post-inoculation. GFP intensity was determined on gated populations of bacterial cells by flow cytometry and analyzed with the Cell Quest software (BD Biosciences, San Jose, Calif.). The growth of Ech3937 in MM supplemented with different concentrations of PCA was recorded. Compared with MM alone, the average GFP fluorescence intensity of bacterial cells of Ech3937 (phrpA) was reduced more than 4-fold when 0.05 and 0.1 mM of PCA were added to the medium (FIGS. 16A, 16B).

[1] = MM + 0.1 mM compound, 6 h (Table 9)
[2] = MM + 0.1 mM compound, 12 h (Table 4)
[3] = MM + 0.1 mM compound, 12 h (Table 9)
[4] = MM + 0.1 mM compound, 24 h (Table 9)
[5] = MM + 0.1 mM PCA (MMPCA), 12 h (Table 10)
[6] = MM + 0.1 mM PCA (MMPCA), 24 h (Table 10)

For `O=C(O)/C=C/c1ccccc1O` [OCA, o-coumaric acid], the “average GFP fluorescence intensity of Ech3937 (phrpA) compared with MM alone” value (hrpA promoter; 0.1 mM compound, 12 h) was “doubled”, the “GFP intensity (Mean Fluorescence Intensity) of Ech-Rif (phrpA)” value (from here on “GFP intensity … of Ech-Rif (phrpA)”) (hrpA promoter; 6 h) was 18 ± 0 and the “GFP intensity … of Ech-Rif (phrpA)” value (hrpA promoter; 12 h) was 51 ± 2. For the same compound, the “GFP intensity … of Ech-Rif (phrpA)” value (hrpA promoter; 24 h) was 49 ± 1, the “expression of hrpA, GFP intensity (Mean Fluorescence Intensity), Ech3937 carrying phrpA” value (shortened to “expression of hrpA, GFP intensity”) (hrpA promoter; [1]) was 15.5 ± 1.1 and the “GFP intensity (Mean Fluorescence Intensity) of Ech3937 (phrpA)” value (from here on “GFP intensity … of Ech3937 (phrpA)”) (hrpA promoter; [2]) was 82 ± 1. The “expression of hrpA, GFP intensity” value (hrpA promoter; [3]) was 115.5 ± 7.9, the “expression of hrpA, GFP intensity” value (hrpA promoter; [4]) was 225.8 ± 15.6 and the “GFP intensity (Mean Fluorescence Intensity) of Ech137 (phrpA)” value (“GFP intensity … of Ech137 (phrpA)” for short) (hrpA promoter; 6 h) was 4.9 ± 0.1. The “GFP intensity … of Ech137 (phrpA)” value (hrpA promoter; 12 h) was 5.9 ± 0.1, the “GFP intensity … of Ech137 (phrpA)” value (hrpA promoter; 24 h) was 8.3 ± 0 and the “GFP intensity (Mean Fluorescence Intensity) of WPP96 (phrpA)” value (from here on “GFP intensity … of WPP96 (phrpA)”) (hrpA promoter; [2]) was 6.5 ± 0.2. The “promoter activity of hrpL compared with MM alone” value (hrpL promoter; Ech3937, MM + 0.1 mM compound, 12 h) was “slightly higher promoter activity”, the “GFP intensity (Mean Fluorescence Intensity) of Ech3937 (phrpL)” value (“GFP intensity … of Ech3937 (phrpL)” for short) (hrpL promoter; [2]) was 19 ± 0 and the “GFP intensity (Mean Fluorescence Intensity) of WPP96 (phrpL)” value (hrpL promoter; hrpL mutant WPP96, MM + 0.1 mM compound, 12 h (Table 4)) was 313 ± 29. For the same compound, the “mrp expression in Ech3937 (pmrp) compared with MM” value (mrp promoter; MM + 0.1 mM compound, 12 h) was “slightly higher mrp expression”, the “GFP intensity (Mean Fluorescence Intensity) of Ech3937 (pmrp)” value (shortened to “GFP intensity … (pmrp)”) (mrp promoter; [2]) was 97.7 ± 1.6 and the “hrpA mRNA compared with MM alone (qRT-PCR)” value (hrpA mRNA; MM supplemented with 0.1 mM OCA (FIG. 4)) was “significantly higher amount”. The “bacterial growth of Ech3937 in supplemented MM” value (Ech3937; 0.05, 0.1 and 0.2 mM in MM (FIGS. 2A, 2B)) was “No reduction of bacterial growth”.
`O=C(O)/C=C/c1ccc(O)cc1` [PCA, p-coumaric acid] was tested, and the “reduction of average GFP fluorescence intensity of Ech3937 (phrpA) compared with MM alone” value (hrpA promoter; 0.05 and 0.1 mM of PCA, 12 h and 24 h (FIGS. 16A, 16B)) was “more than 4 fold”, the “GFP intensity … of Ech3937 (phrpA)” value (hrpA promoter; [5]) was 10.3 ± 1.3 and the “GFP intensity … of Ech3937 (phrpA)” value (hrpA promoter; MM + 0.1 mM PCA (MMPCA), 12 h (Table 11)) was 9.2 ± 0.4. For the same compound, the “GFP intensity … of Ech3937 (phrpA)” value (hrpA promoter; [6]) was 18.5 ± 3.5, the “GFP intensity … of Ech3937 (phrpA)” value (hrpA promoter; MM + 0.1 mM PCA (MMPCA), 24 h (Table 11)) was 12.7 ± 0.3 and the “effect on expression of hrpA (screen result)” value (hrpA promoter; MM + 0.1 mM compound (Table 9)) was “inhibitors of the expression of hrpA”. The “expression of hrpA, GFP intensity” value (hrpA promoter; [1]) was 6.9 ± 0.1, the “expression of hrpA, GFP intensity” value (hrpA promoter; [3]) was 10.2 ± 0.4 and the “expression of hrpA, GFP intensity” value (hrpA promoter; [4]) was 11.4 ± 1.0. For the same compound, the “reduction of GFP fluorescence intensity of Ech3937 (phrpA)” value (hrpA promoter; PCA at 0.001, 0.005 and 0.01 (FIGS. 16A, 16B)) was “did not result in substantial reduction”, the “GFP intensity … of WPP96 (phrpA)” value (hrpA promoter; MM + 0.1 mM PCA, 12 h) was 7.3 ± 0.1 and the “GFP intensity … of WPP96 (phrpA)” value (hrpA promoter; MM + 0.1 mM PCA, 24 h) was 9.0 ± 1.6. The “GFP intensity (Mean Fluorescence Intensity) of WPP90 (phrpA)” value (hrpA promoter; MM + 0.1 mM PCA, 12 h) was 7.9 ± 0.2, the “GFP intensity (Mean Fluorescence Intensity) of WPP90 (phrpA)” value (hrpA promoter; MM + 0.1 mM PCA, 24 h) was 9.3 ± 0.2 and the “GFP intensity (Mean Fluorescence Intensity) of WPP67 (phrpA)” value (hrpA promoter; MM + 0.1 mM PCA, 12 h) was 7.9 ± 0.2. For the same compound, the “GFP intensity (Mean Fluorescence Intensity) of WPP67 (phrpA)” value (hrpA promoter; MM + 0.1 mM PCA, 24 h) was 9.0 ± 1.3, the “GFP intensity (Mean Fluorescence Intensity) of WPP92 (phrpA)” value (hrpA promoter; MM + 0.1 mM PCA, 12 h) was 6.9 ± 0.1 and the “GFP intensity (Mean Fluorescence Intensity) of WPP92 (phrpA)” value (hrpA promoter; MM + 0.1 mM PCA, 24 h) was 9.4 ± 0.7. The “GFP intensity … of Ech3937 (phrpL)” value (hrpL promoter; [5]) was 7.8 ± 0.1, the “GFP intensity … of Ech3937 (phrpL)” value (hrpL promoter; [6]) was 11.1 ± 3.3 and the “GFP intensity … (pmrp)” value (mrp promoter; MM + 0.1 mM PCA, 12 h (Table 10)) was 124.1 ± 2.7. For the same compound, the “GFP intensity … (pmrp)” value (mrp promoter; MM + 0.1 mM PCA, 24 h (Table 10)) was 98.9 ± 1.0, the “hrpA mRNA compared with MM alone (normalized to 1), qRT-PCR” value (hrpA mRNA; 0.1 mM PCA, P=0.001 (FIG. 14)) was “significantly lower amount of mRNA” and the “bacterial growth of Ech3937 in MM with PCA” value (Ech3937; PCA 0.001 to 0.1 mM in MM (FIGS. 16A, 16B)) was “Inhibition of bacterial growth was not observed”.

From US20100249234A1, “METHODS OF REDUCING VIRULENCE IN BACTERIA” (UWM RESEARCH FOUNDATION, INC., priority 2007, published 2010)
